Measured values from ChEMBL document CHEMBL1201862, “PubChem BioAssay data set” (2004).
Activity calls are given as the source filed them.

Legend:
Protein Tat = molecular target: T1, Protein Tat (Human immunodeficiency virus type 1 group M subtype B (isolate HXB2)(HIV-1), UniProt P04608); format: functional;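 also: tat binding to TAR RNA read out by fluorescence polarization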
T1 sequence (P04608 whole entry): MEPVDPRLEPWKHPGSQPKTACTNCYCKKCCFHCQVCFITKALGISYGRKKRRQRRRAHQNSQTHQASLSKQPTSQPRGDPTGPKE

[1] = HIV-1 Vif–A3G interaction blockers – biochemical, TR-FRET, GST-Vif 1-94, biotin-A3G peptide, dose response retest, primary screen (AID 1117319); format: functional;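 also: TR-FRET signal of purified GST-Vif binding a biotinylated A3G peptide; inhibitors lower the FRET signal by blocking Vif and A3G binding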
[2] = HPDE-C7 pancreatic duct cell viability loss – fluorescence, HTS (AID 430); format: functional, cell-based; details: Homo sapiens
[3] = viability loss of HPDE-C7K cells – cell-based, fluorescence, HTS, primary screen (AID 431); format: functional; details: Homo sapiens
[4] = molecular target: T2, Mannose-6-phosphate isomerase (Homo sapiens, UniProt P34949); experiment: MPI inhibition at elevated mannose 6-phosphate – biochemical, fluorescence intensity, high mannose 6-phosphate, primary screen (AID 1220)
T2 sequence (P34949 whole entry): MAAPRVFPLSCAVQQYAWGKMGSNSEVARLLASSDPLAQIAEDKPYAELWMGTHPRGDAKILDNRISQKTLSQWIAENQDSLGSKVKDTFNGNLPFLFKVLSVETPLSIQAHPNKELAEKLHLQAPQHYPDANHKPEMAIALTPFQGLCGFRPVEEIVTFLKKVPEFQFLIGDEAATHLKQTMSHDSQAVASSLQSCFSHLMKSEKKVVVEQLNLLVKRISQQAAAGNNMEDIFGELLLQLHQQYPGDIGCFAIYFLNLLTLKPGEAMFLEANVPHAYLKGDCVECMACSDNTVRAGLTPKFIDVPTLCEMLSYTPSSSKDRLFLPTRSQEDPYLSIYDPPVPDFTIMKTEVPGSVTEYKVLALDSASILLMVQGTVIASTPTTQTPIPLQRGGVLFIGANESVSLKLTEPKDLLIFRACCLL

Genome polyprotein = Genome polyprotein (dengue virus type 2, UniProt P29990); experiment: flavivirus cap methylation enzyme inhibition – biochemical, confirmation dose response, primary screen (AID 588689); format: functional
Sequence of Genome polyprotein (P29990 2492-3391 limits assumed): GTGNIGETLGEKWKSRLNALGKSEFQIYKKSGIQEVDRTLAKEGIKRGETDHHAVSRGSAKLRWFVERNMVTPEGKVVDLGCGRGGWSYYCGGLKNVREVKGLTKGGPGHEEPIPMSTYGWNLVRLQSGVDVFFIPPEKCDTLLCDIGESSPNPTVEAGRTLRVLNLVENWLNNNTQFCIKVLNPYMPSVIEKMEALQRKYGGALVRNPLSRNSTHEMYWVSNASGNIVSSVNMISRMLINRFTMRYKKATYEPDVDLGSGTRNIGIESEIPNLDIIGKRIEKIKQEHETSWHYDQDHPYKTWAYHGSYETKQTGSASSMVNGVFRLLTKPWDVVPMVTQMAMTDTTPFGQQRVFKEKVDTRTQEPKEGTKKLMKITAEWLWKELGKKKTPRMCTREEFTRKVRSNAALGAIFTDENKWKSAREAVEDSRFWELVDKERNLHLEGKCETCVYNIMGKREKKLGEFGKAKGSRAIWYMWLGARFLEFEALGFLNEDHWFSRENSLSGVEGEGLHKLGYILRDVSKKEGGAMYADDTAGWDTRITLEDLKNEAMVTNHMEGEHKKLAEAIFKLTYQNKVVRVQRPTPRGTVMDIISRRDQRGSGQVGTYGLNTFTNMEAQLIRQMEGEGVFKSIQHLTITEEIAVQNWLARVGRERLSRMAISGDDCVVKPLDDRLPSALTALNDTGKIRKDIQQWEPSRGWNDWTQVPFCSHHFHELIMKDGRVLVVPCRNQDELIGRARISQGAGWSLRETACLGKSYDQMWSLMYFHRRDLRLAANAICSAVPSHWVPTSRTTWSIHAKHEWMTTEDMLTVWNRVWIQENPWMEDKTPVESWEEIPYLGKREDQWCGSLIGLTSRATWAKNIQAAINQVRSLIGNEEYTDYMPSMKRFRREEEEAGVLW

Caspase-6 = Caspase-6 (Homo sapiens, UniProt P55212); experiment: inhibition of CASP6 peptide cleavage – biochemical, VEID-R110 fluorescence, cherry-pick, dose response (AID 720632)
Sequence of Caspase-6 (P55212 24-179 limits assumed): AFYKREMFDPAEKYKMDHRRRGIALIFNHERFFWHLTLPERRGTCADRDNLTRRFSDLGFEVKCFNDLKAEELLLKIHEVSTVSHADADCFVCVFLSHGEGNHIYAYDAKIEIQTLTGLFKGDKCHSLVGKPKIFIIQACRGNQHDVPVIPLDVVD
Sequence of Caspase-6 (P55212 194-293 limits assumed): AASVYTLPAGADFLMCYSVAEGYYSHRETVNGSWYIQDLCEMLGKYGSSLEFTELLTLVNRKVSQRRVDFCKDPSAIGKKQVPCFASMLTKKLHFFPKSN

[5] = molecular target: NAD-dependent protein deacylase sirtuin-5, mitochondrial (Homo sapiens, UniProt Q9NXA8); experiment: sirtuin-5 deacylation blockers, concentration series – biochemical, fluorescence imaging, cherry-pick, set 5, dose response (AID 720591);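 also: desuccinylation of succinyl peptide AMC substrate read as fluorescence after trypsin release; potency of inhibitors that lower fluorescence and may act on trypsin instead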
Sequence of NAD-dependent protein deacylase sirtuin-5, mitochondrial (Q9NXA8 whole entry): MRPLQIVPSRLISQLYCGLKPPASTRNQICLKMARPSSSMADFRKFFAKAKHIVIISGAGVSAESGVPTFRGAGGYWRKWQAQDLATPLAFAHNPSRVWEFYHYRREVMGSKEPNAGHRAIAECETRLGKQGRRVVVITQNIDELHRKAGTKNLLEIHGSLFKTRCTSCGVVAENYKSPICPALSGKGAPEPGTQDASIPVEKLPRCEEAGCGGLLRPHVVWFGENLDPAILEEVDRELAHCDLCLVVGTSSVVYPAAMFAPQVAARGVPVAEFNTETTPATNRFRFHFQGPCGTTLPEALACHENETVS

[6] = Luminescence-based cell-based high throughput dose response assay to identify activators of the DAF-12 from the parasite S. stercoralis (ssDAF-12).; format: functional
[7] = molecular target: T3, Oxysterols receptor LXR-beta (Homo sapiens, UniProt P55055); experiment: LXR agonists, Gal4 luciferase reporter, dose response, counter-screen for ssDAF-12 agonist project, cell-based, luminescence, HEK293, S. stercoralis campaign (AID 720737); format: functional; details: read-out: IC50 (the source's name)
T3 sequence (P55055 whole entry): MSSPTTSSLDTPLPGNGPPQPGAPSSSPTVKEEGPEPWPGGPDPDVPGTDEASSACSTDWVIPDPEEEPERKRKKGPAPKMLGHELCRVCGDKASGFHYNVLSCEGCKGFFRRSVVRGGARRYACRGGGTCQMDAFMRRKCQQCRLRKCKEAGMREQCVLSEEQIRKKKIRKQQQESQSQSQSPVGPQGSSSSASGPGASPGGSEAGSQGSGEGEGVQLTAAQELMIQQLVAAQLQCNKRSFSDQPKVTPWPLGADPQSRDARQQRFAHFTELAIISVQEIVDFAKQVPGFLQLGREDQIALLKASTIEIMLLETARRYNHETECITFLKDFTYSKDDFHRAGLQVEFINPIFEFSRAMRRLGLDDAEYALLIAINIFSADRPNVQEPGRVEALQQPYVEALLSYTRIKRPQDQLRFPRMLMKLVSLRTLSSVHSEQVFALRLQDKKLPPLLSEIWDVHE

cells [8] = details: HEK293
[9] = toxicity toward HepG2 liver cells – cell-based, plate reader, cherry-pick, antagonist series, cytotoxicity control, dose response (AID 743416); format: functional
[10] = blockers of bursicon-stimulated LGR2 cAMP reporter – cell-based, HEK293, CRE-luciferase reporter, cherry pick, set 2, dose response (AID 743343); format: functional;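 also: transfected cells were stimulated with diluted bursicon conditioned medium after compound addition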
[11] = blockade of melanocortin 4 receptor signaling – cell-based, plate reader, cherry pick, counter-screen for LGR2 antagonist project, dose response (AID 743444); format: functional;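 also: transfected HEK 293 cells stimulated with alpha-MSH peptide; potency of inhibitors of the alpha-MSH evoked signal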
[12] = viability loss in HEK293 cells – cell-based, plate reader, cherry-picked samples, cytotoxicity control, dose response (AID 743446); format: functional
[13] = viability inhibitors of stage V gametocytes – luminescence, dose response (AID 1117278); format: functional, cell-based;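 also: gametocytes exposed to compound for 24 hours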
[14] = viability loss in human Jurkat cells – cell-based, luminescence, cytotoxicity control for P. falciparum gametocyte viability project, dose response (AID 1117277); format: functional;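 also: potency reflects loss of cellular ATP meaning fewer viable cells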
Mu-type opioid receptor = Mu-type opioid receptor (Homo sapiens, UniProt P35372); format: functional, cell-based;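 also: U2OS cells with beta-arrestin recruitment to OPRM1 by beta-gal complementation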
Sequence of Mu-type opioid receptor (P35372 whole entry): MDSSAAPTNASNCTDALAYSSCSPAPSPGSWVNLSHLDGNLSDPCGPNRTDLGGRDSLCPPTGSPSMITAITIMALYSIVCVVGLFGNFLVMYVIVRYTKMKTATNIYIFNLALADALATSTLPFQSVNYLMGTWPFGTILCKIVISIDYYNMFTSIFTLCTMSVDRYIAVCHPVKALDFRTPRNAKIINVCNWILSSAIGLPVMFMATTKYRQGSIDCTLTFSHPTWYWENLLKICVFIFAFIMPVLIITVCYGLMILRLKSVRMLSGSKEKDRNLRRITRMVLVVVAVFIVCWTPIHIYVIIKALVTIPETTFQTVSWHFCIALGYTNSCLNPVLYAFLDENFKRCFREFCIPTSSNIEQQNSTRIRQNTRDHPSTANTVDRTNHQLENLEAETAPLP

[15] = molecular target: 5-hydroxytryptamine receptor 2A (Mus musculus, UniProt P35363); format: functional, cell-based;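 also: CHO-K1 cells with tagged receptor and beta-arrestin; agonist potency measured as compound-induced activation of the receptor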
cells [16] = experiment: cells
[17] = molecular target: Induced myeloid leukemia cell differentiation protein Mcl-1 (Homo sapiens, UniProt Q07820); format: functional
Sequence of Induced myeloid leukemia cell differentiation protein Mcl-1 (Q07820 whole entry): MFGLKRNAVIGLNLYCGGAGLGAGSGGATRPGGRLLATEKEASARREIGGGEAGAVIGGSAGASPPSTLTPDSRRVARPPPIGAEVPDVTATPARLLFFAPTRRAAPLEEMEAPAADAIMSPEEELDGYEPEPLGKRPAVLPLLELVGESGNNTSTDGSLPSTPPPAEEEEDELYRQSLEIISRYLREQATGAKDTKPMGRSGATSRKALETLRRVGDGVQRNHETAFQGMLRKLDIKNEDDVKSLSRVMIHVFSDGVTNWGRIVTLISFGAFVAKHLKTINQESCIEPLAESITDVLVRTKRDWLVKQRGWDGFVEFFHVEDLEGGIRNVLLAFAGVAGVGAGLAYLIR

Albumin = Albumin (Bos taurus, UniProt P02769); experiment: Counterscreen for inhibitors of T-cell receptor (TCR)-CD3 interaction: Fluorescence-based biochemical high throughput dose response assay to identify inhibitors of T-cell receptor (TCR)-CD3 interaction using a TAMRA-labeled BSA probe.; format: functional
[18] = molecular target: 1-phosphatidylinositol 4,5-bisphosphate phosphodiesterase gamma-1 (Homo sapiens, UniProt P19174); experiment: Counterscreen for inhibitors of phospholipase C isozymes (PLC-B3): Fluorescence-based biochemical high throughput dose response assay to identify inhibitors of phospholipase C isozymes (PLC-gamma1).
Sequence of 1-phosphatidylinositol 4,5-bisphosphate phosphodiesterase gamma-1 (P19174 whole entry): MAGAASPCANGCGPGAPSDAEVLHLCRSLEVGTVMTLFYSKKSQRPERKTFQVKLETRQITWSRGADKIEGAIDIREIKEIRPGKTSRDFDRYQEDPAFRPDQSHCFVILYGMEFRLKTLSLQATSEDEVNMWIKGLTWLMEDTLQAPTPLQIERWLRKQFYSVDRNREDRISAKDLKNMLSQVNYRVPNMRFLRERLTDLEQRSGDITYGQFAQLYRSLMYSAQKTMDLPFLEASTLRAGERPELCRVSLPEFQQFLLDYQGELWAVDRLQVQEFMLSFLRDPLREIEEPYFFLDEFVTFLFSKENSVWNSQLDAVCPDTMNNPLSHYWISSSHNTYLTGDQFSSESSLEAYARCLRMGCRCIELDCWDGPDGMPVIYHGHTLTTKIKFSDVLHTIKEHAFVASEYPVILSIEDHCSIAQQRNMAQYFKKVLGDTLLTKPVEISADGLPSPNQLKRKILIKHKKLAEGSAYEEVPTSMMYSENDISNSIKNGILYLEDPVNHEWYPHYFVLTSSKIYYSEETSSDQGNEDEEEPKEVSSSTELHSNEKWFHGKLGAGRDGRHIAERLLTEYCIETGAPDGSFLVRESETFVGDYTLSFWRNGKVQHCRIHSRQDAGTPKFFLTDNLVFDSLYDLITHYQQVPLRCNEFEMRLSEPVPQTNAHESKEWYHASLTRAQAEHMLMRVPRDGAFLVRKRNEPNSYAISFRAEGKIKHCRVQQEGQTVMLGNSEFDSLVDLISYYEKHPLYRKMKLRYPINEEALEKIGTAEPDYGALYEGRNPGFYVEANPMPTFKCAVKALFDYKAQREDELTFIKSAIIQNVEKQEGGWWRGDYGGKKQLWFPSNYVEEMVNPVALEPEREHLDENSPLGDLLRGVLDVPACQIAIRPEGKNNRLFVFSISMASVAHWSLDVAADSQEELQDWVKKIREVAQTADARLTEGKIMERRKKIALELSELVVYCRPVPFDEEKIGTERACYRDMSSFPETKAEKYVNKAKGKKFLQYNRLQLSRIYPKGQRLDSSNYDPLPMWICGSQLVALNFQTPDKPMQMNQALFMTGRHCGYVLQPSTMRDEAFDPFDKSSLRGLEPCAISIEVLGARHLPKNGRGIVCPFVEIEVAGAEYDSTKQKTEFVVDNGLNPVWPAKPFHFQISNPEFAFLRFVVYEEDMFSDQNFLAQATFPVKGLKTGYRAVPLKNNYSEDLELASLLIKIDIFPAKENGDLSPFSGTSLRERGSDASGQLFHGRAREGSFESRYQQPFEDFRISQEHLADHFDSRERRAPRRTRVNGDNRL

[19] = molecular target: 1-phosphatidylinositol 4,5-bisphosphate phosphodiesterase beta-3 (Homo sapiens, UniProt Q01970); experiment: Fluorescence-based biochemical high throughput dose response assay to identify inhibitors of phospholipase C isozymes (PLC-B3).
Melanocortin receptor 4 = Melanocortin receptor 4 (Homo sapiens, UniProt P32245); experiment: inhibitors of MC4R cAMP signaling – cell-based, TR-FRET, biased antagonists, dose response (AID 602298); format: functional;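 also: antagonist potency against agonist-stimulated cAMP production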
[20] = cAMP pathway inhibition in counterscreen cell line – TR-FRET cAMP detection, counter-screen for MC4R biased antagonist project, dose response (AID 602305); format: functional, cell-based;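 also: U2OS cells stimulated with forskolin near its EC80 as the cAMP inducer; potency is for inhibition of forskolin-stimulated cAMP signaling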
[21] = A549 cell cytotoxicity, dose response, cytotoxicity control, plate reader, cherry-pick, antagonist series (AID 743412); format: functional, cell-based
Paired box protein Pax-8 = Paired box protein Pax-8 (Homo sapiens, UniProt Q06710); experiment: PAX8 transcriptional activity inhibition in RMG-I – RMG-I cells, luciferase, cherry-pick, dose response (AID 687027); format: functional, cell-based;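 also: luciferase reporter driven by Pax8 target thyroperoxidase promoter measured by SteadyGlo luminescence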
[22] = toxicity toward immortalized ovarian surface epithelium – cell-based, plate reader, dry powder samples, cytotoxicity control for PAX8 inhibitor project, dose response (AID 743045); format: functional
[23] = A2780 cell killing – plate reader, dry powder samples, cytotoxicity control, dose response (AID 743046); format: functional, cell-based
[24] = OVCAR-3 cell viability loss – plate reader, dry powder samples, PAX8 inhibitor project, dose response (AID 743044); format: functional, cell-based
[25] = IGROV1 cell killing – plate reader, dry powder samples, PAX8 inhibitor project, dose response (AID 743043); format: functional, cell-based; details: IGROV-1
[26] = general cell-killing toxicity readout – plate reader, dry powder samples, cytotoxicity control for PAX8 inhibitor project, dose response (AID 743021); format: functional, cell-based
[27] = OVCAR8 cell viability loss – plate reader, dry powder samples, PAX8 project, dose response (AID 743197); format: functional, cell-based; details: OVCAR-8
[28] = molecular target: Metabotropic glutamate receptor 5 (Rattus norvegicus, UniProt P31424); experiment: Identification of a glycine sulfonamide based non-MPEP site positive allosteric potentiator (PAM) of mGlu5 (calcium_assay).; format: functional
Sequence of Metabotropic glutamate receptor 5 (P31424 whole entry): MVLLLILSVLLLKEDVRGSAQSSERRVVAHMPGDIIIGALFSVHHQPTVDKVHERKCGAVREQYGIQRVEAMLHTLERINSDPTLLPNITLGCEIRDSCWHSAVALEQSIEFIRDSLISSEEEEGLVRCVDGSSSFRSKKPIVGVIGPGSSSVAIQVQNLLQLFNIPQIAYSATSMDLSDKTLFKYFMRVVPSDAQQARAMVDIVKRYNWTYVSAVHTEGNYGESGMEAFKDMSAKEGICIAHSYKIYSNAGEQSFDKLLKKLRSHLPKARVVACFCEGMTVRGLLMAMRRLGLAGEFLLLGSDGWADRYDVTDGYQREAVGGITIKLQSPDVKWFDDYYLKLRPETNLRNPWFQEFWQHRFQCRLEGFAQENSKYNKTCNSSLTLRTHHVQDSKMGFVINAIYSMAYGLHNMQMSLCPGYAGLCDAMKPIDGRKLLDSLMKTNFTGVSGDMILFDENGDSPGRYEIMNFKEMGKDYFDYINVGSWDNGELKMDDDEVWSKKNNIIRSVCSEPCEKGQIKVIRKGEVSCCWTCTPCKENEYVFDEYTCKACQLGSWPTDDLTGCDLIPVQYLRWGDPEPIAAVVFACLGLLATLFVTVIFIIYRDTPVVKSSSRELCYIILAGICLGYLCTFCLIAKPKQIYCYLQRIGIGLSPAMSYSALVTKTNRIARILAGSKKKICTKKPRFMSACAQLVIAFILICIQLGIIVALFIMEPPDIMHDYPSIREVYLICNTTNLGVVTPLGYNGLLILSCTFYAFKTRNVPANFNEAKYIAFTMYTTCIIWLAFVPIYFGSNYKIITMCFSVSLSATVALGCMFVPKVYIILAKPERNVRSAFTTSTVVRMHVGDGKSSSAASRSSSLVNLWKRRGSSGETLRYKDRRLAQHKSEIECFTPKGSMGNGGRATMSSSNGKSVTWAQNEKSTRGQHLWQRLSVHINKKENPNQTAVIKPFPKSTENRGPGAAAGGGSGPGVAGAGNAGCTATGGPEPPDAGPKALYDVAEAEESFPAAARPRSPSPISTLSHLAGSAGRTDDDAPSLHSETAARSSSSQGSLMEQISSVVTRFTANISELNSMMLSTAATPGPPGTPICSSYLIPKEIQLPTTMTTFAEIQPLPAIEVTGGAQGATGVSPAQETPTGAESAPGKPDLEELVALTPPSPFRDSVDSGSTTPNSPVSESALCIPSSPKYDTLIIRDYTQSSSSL

[29] = inhibitors acting on PAX2 in cells – cell-based, plate reader, dry powder samples, selectivity assay for PAX8 inhibitor project, dose response (AID 743048); format: functional;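 also: HEK293 cells carrying a WT1 promoter luciferase reporter driven by expressed Pax2; potency is for inhibition of Pax2 driven reporter signal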
[30] = PAX5 cellular inhibition readout – cell-based, plate reader, dry powder samples, selectivity assay for PAX8 inhibitor project, dose response (AID 743047); format: functional;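 also: HEK293 cells carrying a Pax5 driven CD19 promoter luciferase reporter; potency of inhibitors that lower reporter luminescence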
[31] = COV434 cell viability loss – plate reader, dry powder, SA7, cytotoxicity control for PAX8 inhibitor project, dose response (AID 743145); format: functional, cell-based
[32] = OV-90 cell viability loss – plate reader, dry powder, SA8, PAX8 inhibitor project, dose response (AID 743149); format: functional, cell-based
[33] = PAX8-dependent cell viability loss – plate reader, dry powder, dose response (AID 743049); format: functional, cell-based
[34] = toxicity to human hepatoma HepG2 cells – cell-based, cherry-picked samples, cytotoxicity control, dose response (AID 1159577); format: functional
[35] = growth inhibition of yeast DHODH-expressing 3D7 parasites – SYBR Green, dry powder samples, dose response (AID 1159570); format: functional, cell-based;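 also: parasite growth measured after 72 hours of compound exposure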
[36] = toxicity to human HepG2 hepatoma cells – cell-based, plate reader, dry powder samples, cytotoxicity control, dose response (AID 1159569); format: functional;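 also: inhibitor potency with signal falling toward the positive control level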
[37] = P. falciparum Dd2 growth inhibitors, dose response, SYBR Green, cherry-picked samples (AID 1159567); format: functional, cell-based
[38] = Dd2 malaria parasite growth inhibition potency – SYBR Green, dry powder samples, dose response (AID 1159566); format: functional, cell-based;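 also: potency for growth inhibition with lower SYBR green DNA signal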
[39] = growth inhibition of PfATP4-mutant resistant parasites – NITD609-resistant line, SYBR Green, dry powder, dose response (AID 1159571); format: functional, cell-based;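 also: parasites synchronized at ring stage by sorbitol before testing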

CCOc1ccc(-n2c(Cc3cc(O)nc(O)n3)nnc2SCC(N)=O)cc1
IC50 (Protein Tat): > 100 µM (active) | IC50 [1]: > 100 µM (active)

O=C(CCN1CCN(c2ccccc2F)CC1)c1ccc(Br)cc1
EC50 [2]: 7.29 µM (active) | EC50 [3]: 8.84 µM (active) | IC50 [4]: 38.2 µM (active)

O=C(O)c1cccc(N2C(=O)c3cc([N+](=O)[O-])cc4cc([N+](=O)[O-])cc(c34)C2=O)c1
IC50 (Genome polyprotein): 26.7 µM (active) | AC50 (Caspase-6): 8.47 µM (active)

Cc1ccc(-n2c(Cc3cccn3C)nnc2SCC(=O)Nc2nnc(C)s2)cc1
IC50 [1]: > 100 µM (active)

COc1ccc(N(C(C)=O)c2nc3ccccc3[nH]2)cc1
AC50 [5]: > 30 µM (inactive)

COc1ccc(NC(=O)c2cc3ccccc3cc2OC)cc1
IC50 [6]: > 67.5 µM (inactive) | EC50 [7]: > 67.5 µM (inactive)

COC(=O)C1=CN(C)C=C(C(=O)OC)C1c1ccccc1Cl
AC50 (cells [8]): > 52 µM (inactive)

Cc1ccc(-c2nnc(Nc3ccccc3)o2)cc1
AC50 [9]: > 52 µM (inactive) | AC50 [10]: 18.6 µM (active) | AC50 [11]: 25.6 µM (active) | AC50 [12]: > 52 µM (inactive)

CC(C)CNC(=O)c1cccc(NC(=O)COc2ccc([N+](=O)[O-])cc2)c1
IC50 [13]: > 109 µM (inactive) | IC50 [14]: > 83.3 µM (inactive)

CN1CCc2c(sc(NC(=O)Cc3ccccc3)c2C#N)C1
EC50 (Mu-type opioid receptor): 92.5 µM (inactive) | EC50 [15]: 48.2 µM (inactive) | AC50 (cells [16]): 66.1 µM (active)

O=C1/C(=C/c2ccco2)SC(=S)N1c1cccnc1
IC50 [17]: 3.16 µM (not active) | IC50 (Albumin): > 94.1 µM (inactive) | IC50 [18]: > 122 µM (inactive) | IC50 [19]: > 122 µM (inactive)

COc1ccc(CN2Cc3cnnn3-c3ccccc3C2C#N)cc1 (stereo not given)
IC50 (Melanocortin receptor 4): 26.3 µM (inactive) | IC50 [20]: > 64.7 µM (inactive) | AC50 [21]: 20.6 µM (active) | AC50 [9]: > 52 µM (inactive) | AC50 [10]: 27.1 µM (active) | AC50 [11]: 25.8 µM (active) | AC50 [12]: 12.7 µM (active)

C[C@H](CO)N1C[C@H](C)[C@@H](CN(C)S(=O)(=O)c2ccc(F)cc2)OCCCC[C@H](C)Oc2ccc(NS(=O)(=O)c3ccc(Cl)cc3)cc2C1=O
AC50 (Paired box protein Pax-8): 4.97 µM (active) | AC50 [22]: 13.1 µM (active) | AC50 [23]: 23.3 µM (active) | AC50 [24]: 11.9 µM (active) | AC50 [25]: 35.1 µM (active) | AC50 [26]: 49.2 µM (active) | AC50 [27]: 14.9 µM (active)

CS(=O)(=O)N(CC(=O)Nc1ccc(F)nc1)c1ccccc1Cl
EC50 [28]: 4.4 µM

CS(=O)(=O)N1c2ccccc2CCC1C(=O)Nc1ccncc1 (stereo not given)
EC50 [28]: 10 µM (inconclusive)

COc1ccccc1C#Cc1ccc([C@H]2[C@@H](CO)N(C(=O)C3CCCC3)[C@H]2C#N)cc1
AC50 [29]: 27.6 µM (active) | AC50 [24]: 48.3 µM (active) | AC50 [30]: 23 µM (active) | AC50 [25]: 37.4 µM (active) | AC50 [31]: > 70 µM (inactive) | AC50 [32]: > 70 µM (inactive) | AC50 [33]: 40.7 µM (active)

C[C@@H]1CN([C@@H](C)CO)C(=O)Cc2cc(NC(=O)Nc3ccc4c(c3)OCO4)ccc2O[C@H]1CN(C)Cc1ccc2c(c1)OCO2
AC50 [34]: > 39 µM (inactive)

C[C@@H]1CN([C@@H](C)CO)C(=O)c2c(c3ccccc3n2C)-c2ccccc2CO[C@@H]1CN(C)C(=O)Nc1ccc(-c2ccccc2)cc1
AC50 [35]: 2.36 µM (active) | AC50 [36]: > 100 µM (inactive) | AC50 [37]: 1.93 µM (active) | AC50 [38]: 1.48 µM (active) | AC50 [34]: > 42 µM (inactive) | AC50 [39]: 1.46 µM (active)
